We go through one compound from patent US20140221472A1, “USE OF MYRICETIN OR DERIVATIVES THEREOF AS A CATHEPSIN K INHIBITOR” (JILINSHENG JINZIYUAN BIOTECHNOLOGY LTD, priority 2013, published 2014).

The test system of series [1] is BALB/C mice. The experiment in a line: Maximum tolerated dose acute toxicity test. Format: in vivo. The note with it: 100 g/kg body weight, single gavage, observed 2 weeks. From the text:
BALB/C mice were bred by Harbin Veterinary Research Institute of Experimental Animal Center, Chinese Academy of Agricultural Sciences, and the animal quality permit number is Heilongjiang-SYXK 2006-032. The selection conditions are age at 9 weeks to 10 weeks, weighing about 20 g, half male and half female.
The animal laboratory had regular air ventilation, good lighting, and constant laboratory room temperature. There were five mice per cage, and they were fed with extruded feed produced specifically for mice, with free access to drinking water.
Firstly, the acute toxicity tests were conducted on to evaluate the safety of myricetin in order to provide the basis for the therapeuticapplication of myricetin. In this study, the maximum tolerated dose acute toxicity test was used. Twenty of BALB/C mice with the healthy body weight about 20 g, half male and half femalewere selected, The clinical intended route of administration is oral, so this experiment used intragastric administration. Myricetin (purchased from Shanghai Chemical Co., Ltd. Item No. A0145, Myricetin; 3,5,7,3,4′,5′-hexahydroxyflavone, CAS No: 529-44-2. Pure and natural extracts, purity ismore than 98.5% confirmed by NMR and HPLC purity analysis) was modulated into a stick-like with distilled water. Dosed at […] body weight, gavage was conducted to the mice (about 200 mg myricetin per mouse). […]

Series [2] deals with T1, cathepsin K (Homo sapiens, UniProt P43235).
T1 sequence (P43235 115-329): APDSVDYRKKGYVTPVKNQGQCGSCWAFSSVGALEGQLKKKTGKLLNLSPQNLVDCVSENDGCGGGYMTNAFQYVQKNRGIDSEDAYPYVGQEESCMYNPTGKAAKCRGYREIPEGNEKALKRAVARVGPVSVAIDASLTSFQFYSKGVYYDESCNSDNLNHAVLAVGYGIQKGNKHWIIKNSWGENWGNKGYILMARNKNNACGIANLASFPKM
Briefly: Cathepsin K induced collagen degradation, SDS-PAGE screening. The note with it: 100 uM myricetin, collagen type I/II substrate, pH 6.0, 37° C., 15 hours. Also on record: made in house; host or cells: yeast cells (the cited Linnevers et al. method uses Pichia pastoris). Type of series: biochemical. From the text:
A series of Chinese herbal medicine of monomer myricetin were purchased from Shanghai Jingke Chemical Co., Ltd.,(Cat. No. A0145, 3,5,7,3′, 4′, 5′-hexahydroxyflavone, CAS No: 529-44-2). It was purified from natural plant (the purity is more than 98.5% confirmed by NMR and HPLC purity assay) and was used as an inhibitor candidate compound. Meanwhile, collagen type I (Cat No. SU2087) and collagen type II (Cat No. SU2088) were purchased from SIGMA and were used as a substrate for cathepsin K. For screening experiments, […] and 1 ug cathepsin K were added into 50 mM phosphate buffer (pH6.0), then myricetin compounds dissolved in 20% ethanol were added with the final concentrations of 100,200,500,1000 uM, respectively, finally an additional 50 mM of phosphate buffer (pH 6.0) was added again to bring a total volume of 500 uL. The reactions were incubated at 37° C. for 15 hours in a water bath. As a positive control without any candidate compound, 100 ug collagen, […], and 50 mM phosphate buffer solution (pH6.0) were added to bring a total volume of 500 uL. […] After completion of the reactions, the reaction samples were applied to 10% SDS-PAGE gel electrophoresis, coomassie blue staining and destaining, and the intensity of the stained protein bands were analyzed. […]

The conditions of series [3]: left in air; becomes green; cited from earlier work.
Series [4] concerns the target T1, cathepsin K. Briefly: Cathepsin K activity with fluorogenic substrate HD-Ala-Leu-Lys-AMC. Format: biochemical. Also on record: made in house. The note with it: 100,200,500,1000 uM; fluorescence 390/460 nm; effect enhanced as concentration increased. The method, then:
Using a Fluoroskan Ascent, recombinant cathepsin K inhibition ratios with different concentration of myricetin were calculated after completion of the reaction and the IC50 value was determined.
In order to determine the inhibitory effect of myricetin on cathepsin K activity, a cathepsin. K specific fluorogenic substrate HD-Ala-Leu-Lys-AMC (Cat. No. 104881-72-3, purchased from GL Biochem (Shanghai) Co., Ltd.) was used and Cary Eclipse fluorescence spectrophotometer (Agilent Technologies Inc., Beijing) for quantitative analysis was applied. 1 ug of cathepsin K-specific fluorogenic substrate HD-ALK-AMC, 1 ug cathepsin K, myricetin compounds dissolved in 20% ethanol with final concentrations of 100,200,500,1000 uM were added into 50 mM of phosphate buffer. An additional 50 mM of phosphate buffer (pH6.0) was added to bring a total volume of 500 uL. And the reaction sample was inhibited at 37° C. for 15 hours in a water bath. As a positive control without any candidate compound, 1 ug of cathepsin K specific fluorogenic substrate HD-ALK-AMC and 1 ug of cathepsin K, and 50 mmol phosphate buffer solution (pH6.0) were added to bring a total volume of 500 uL. […] After completion of the reaction, the samples were measured at 390 nm excitation wavelength and 460 nm emission wavelength for fluorescence intensity changes assay, and the value of cathepsin K activity was calculated.

The subject of series [5] is type II collagen-induced arthritis mice. Briefly: Bovine type II collagen-induced arthritis in mice. Type of series: in vivo. Here is the method: Firstly, same strains and sources of animals as shown in Example 2 were selected, and total 105 of 9-week-old BALB / C mice were fed under the same conditions. There were 70 mice that each had subcutaneous injection of 200 ug of Freund's adjuvant emulsified bovine type II collagen. 15 days after the first immunization, subcutaneous injection was applied again at 200 ug per mouse with incomplete Freund's adjuvant emulsified bovine type H collagen to strengthen the immunity. After 24 days of the first injection, the 70 mice were divided into two groups, of which 35 mice were treated with myricetin intake orally 25 mg/kg body weight daily as a treated-group, while the other 35 were the model control group fed normally without myricetin. The remaining 35 mice were the normal control group without immunization and fed with normal food, used as a blank control.
Throughout the testing period, arthritis conditions of the mice and arthritic conditions after the treatment were observed. After immunization with type II collagen on mice, the conventional methods were used by measuring the degree of paw swelling (thickness) (see FIG. 3) and weight change (see FIG. 4), and myricetin therapeutic effects were monitored and evaluated throughout the procedure (0.5 mm increased thickness for one magnitude) (see FIG. 5).
On the 48 day, the blood from the heart was extracted, and the serum was separated, meanwhile all mice were killed. The mouse urinary deoxypyridinoline (urinary deoxypyridinoline) (see FIG. 6), type I collagen C telopeptide (CTX-I) (see FIG. 7) and serum cartilage oligomeric matrix protein (COMP) were examined, and histological treatment evaluation were conducted (see FIG. 8).
The mouse urinary deoxypyridinolineideoxypyridinoline kit (DPD kit from Shanghai Huyu Biotech Co., Ltd., No. HY-E3170B) was used. According to the instructions provided, iMark-BIO-RAD microplate reader (U.S. BIO-RAD) was used to detect the concentration of mouse urinary deoxypyridinoline at 450 wavelength (see FIG. 6).
Rat C-terminal peptide of type I collagen (CTX-I) ELISA Kit from Shanghai Jima Biotech Co., Ltd., NO Wk30026) was used. According to the method provided by the kit instruction, the change in the content of type I collagen C-terminal peptide in mice serum was detected to evaluate the effect that myricetin prevented type I collagen degradation by suppressing cathepsin K (see FIG. 7).
The cartilage oligomeric matrix protein ELISA kit (from Shanghai Yihan Biotech Co., Ltd., No. SU10580) was used.
After killing of the mice, the paws were fixed with 4% formaldehyde for 24 hours, then decalcificated using 500 mmol of EDTA […]. The paraffin sections were prepared using the conventional method and stained with hematoxylin / eosin staining method. […] The synovial surface almost disappeared with a rough surface in a grid pattern, and there were a large number of macrophages. […] It can be concluded that by myricetin therapeutic administration, the mice arthritis is mostly recovered (see FIG. 9).
Based on mice joint tissue sections, according to methods from Larsson et. al. (Rheumatology (Oxford), 2004, 43 (4),428-434),the therapeutic effect of myricetin on rheumatoid arthritis in mice was evaluated, as well as the degree of arthritis. Main evaluation were based on: (1) the size of the joint cavity, inflammatory cell infiltration, cartilage damage and fibrin deposition. From three individual evaluations, it was divided into three levels, which are 0 for normal, level 1 for the light degree of arthritis, level 2 for the moderate arthritis and level 3 for severe arthritis (see FIGS. 3 and 5). (2) The weight change (see FIG. 4). (3) histology examination (see FIG. 9) and evaluation (see FIGS. 10 and 11).

The conditions of series [6]: cited from earlier work.

Take `O=c1c(O)c(-c2cc(O)c(O)c(O)c2)oc2cc(O)cc(O)c12` [myricetin, 3,5,7-Trihydroxy-2-(3,4,5-trihydroxyphenyl)-4H-1-benzopyran-4-one]: in series [1], the “symptoms of poisoning and death” value is given as “free of any symptoms of poisoning”. The “inhibition of the cathepsin K activity (collagen degradation)” value in series [2] is reported as “complete inhibition”. For the same compound, the stability to oxidation result in series [3] was “easily oxidized”. For the same compound, the “inhibitory effect on cathepsin K activity” value in series [4] is listed as “significant inhibitory effect”. For the same compound, in series [5] (25 mg/kg daily orally from day 24 to 48, vs immunized mice), the “arthritis symptoms (paw swelling, clinical score)” value is “significantly improved”. In series [5] (25 mg/kg p.o., compared with the model group, P<0.05), the degree of arthritis entry is recorded as “significantly reduced”. For the same compound, the “concentration of urinary deoxypyridinoline” value in series [5] (25 mg/kg p.o., day 48, ELISA, vs control group, P<0.001) is reported as “significantly lower”. In series [5] (25 mg/kg p.o., day 48, ELISA, vs model control group, P<0.001), the “content of type I collagen C-terminal peptide in mice serum” value is “significantly lower”. Besides, the “content of cartilage oligomeric matrix protein in mice serum” value in series [5] (25 mg/kg p.o., day 48, ELISA, vs model control group, P<0.005) is given as “significantly lower”. The “synovial surface pathological changes (histology)” value in series [5] (25 mg/kg p.o., day 48, hematoxylin/eosin paw sections) is listed as “significantly reduced pathological changes”. Further, the “focal hyperplasia of the synovial lining cells” value in series [5] (end of study, ankle joint sections, hematoxylin and eosin, FIG. 9) was “undetectable”. The “hind leg swelling and redness with ankle joint thickening” value in series [5] (end of study, representative photographs, FIG. 9) was “attenuated”. In addition, in series [6] (chloroform and petroleum), the “solubility in chloroform and petroleum” value is given as “insoluble”. The “solubility in methanol, ethanol, aceton, ethyl acetate” value in series [6] (methanol, ethanol, aceton, ethyl acetate) was “soluble”. Further, the solubility in water result in series [6] (water) is “slightly soluble”.
